Source: patent US12076329B2, “Compositions and methods for enhancing visual function” (The Regents of the University of California, priority 2020, dated 2024)

Assays:
Format in all cases: in vivo, mouse
[1] = tested on: rd1 mice expressing SNAP-mGluR2 in RGCs; assay: 2-chamber light/dark light aversion test, SNAP-mGluR2 in RGCs
Method: (§1) Mouse experiments were conducted under the express approval of the University of California Animal Care and Use Committee, wt mice (C57BL/6J) and rd1 mice (C3H) were purchased from the Jackson Laboratory and housed on a 12-h light/dark cycle with food and water ad libitum. cDNA encoding SNAP-mGluR2 was inserted in an established viral cassette under control of either the human synapsin promoter (hsyn-1) for expression in RGCs or a 4-copy concatemer of the mouse grm6 minimal promoter (4×grm6) for expression in ON-BCs and packaged in the AAV 2/2-4YF capsid. The vector, containing 10^10-10^12 viral genomes was delivered in a 2 µl volume to the vitreous of the rd1 mouse eye via microinjection. rAAV injections were at p30-p60 and in vivo and in vitro experiments at p90-p160. AAVs were produced as previously described.
Photoswitch compounds were synthesized using the protocol described in Broichhagen, J., et al. (2015) ACS Cent Sci 1, 383-393. Stock solution of […] BGAG12,460 (L-diastereomer) in 100% pharmaceutical grade DMSO (Cryoserv; Bioniche Pharma) was diluted 1:100 in sterile PBS for a final working solution of 1 mM in 1% DMSO. Working solutions were either prepared before administration, prepared in stock stored in the freezer and used as required, or salvaged from the recording bath and stored (either RT or freezer) for reuse. Application of BGAG12,460 or BGAG12 on retinal explants were performed in a volume of 200 μL at a concentration of 50 μM to 50 nM BGAG12,460 (in PBS with >1% DMSO). For in vivo behavioral experiments, a 2-μL volume of 1 mM or 3.5 μL (final vitreal concentration of […]) of BGAG12,460 solution (in PBS with 1% DMSO) was injected into eyes that treated with AAV>6 wks earlier). For in vivo concentration dependence experiments, the mouse eye was assumed to contain a volume of 5.3 μL and a 2-μL volume of 3.5 μM, 1.825 μM and 0.1825 μM BGAG12,460 solution (in PBS with 1% DMSO) was injected into eyes to obtain a final concentration of 1 μM, 500 nM and 50 nM^62. For hydrated slow release 5% pharmaceutical grade beta cyclodextrin (cyclodex) in PBS was mixed with BGAG12,460 for a final concentration of 3 μM and 2 μL were injected bilaterally into the mouse eye. MAG0460 was synthesized and administered in 2 μL at a concentration of 100 μM.
(§2) The 2-chamber light-dark passive avoidance test was performed. White light (wavelength range) at ˜100 μW cm^2 or either blue light (460/45 nm) or green light (535/50 nm) at 0.5-25 μW cm^2 was mounted above the chamber with homogeneously distributed light.
(§3) Animal movements were tracked using IR sensors on the shuttle box. Time spent in the light and dark chambers was measured and analyzed using Graphic State and Graphic State RT (Coulbourn Instruments).
Natural light aversion behavior was tested. […]

[2] = tested on: rd1 mice expressing SNAP-mGluR2 in ON-BCs; assay: 2-chamber light/dark light aversion test, SNAP-mGluR2 in ON-BCs; conditions: in PBS intravitreal
Method: as §1, §2, §3
Whether ^4×BGAG12,460:SNAP-mGluR2 would also restore light perception in ON-BCs was tested. […]

[3] = tested on: rd1 mice expressing SNAP-mGluR2 in RGCs; assay: Line pattern recognition (learned aversive association, iPad displays), SNAP-mGluR2 in RGCs; conditions: for line pattern recognition in moving displays (lines 1 or 6 cm apart): displays moving at 4 or 8 cm/s; for high-acuity line pattern recognition, 0.5 cm wide lines separated by 0.25 or 0.5 cm: in PBS intravitreal
Method: Modified active avoidance was assayed as previously described^19, using the Coulbourn shuttle box (H10-11M-SC), however, now iPad tablet screens were mounted onto the shuttle cage wall, each displaying one of two images that differed in orientation or distance between two lines but were otherwise of equal shape, size, and light intensity. The aversive image side was paired with a foot shock of 0.7 mA. Upon recall the light patterns were reversed to avoid a bias for location and time spent on each side was recorded. Adaptation was tested by dimming or brightening the display to different intensities.
As shown above, ^4×BGAG12,460:SNAP-mGluR2 in either RGCs or ON-BCs confers high sensitivity light perception. It was asked whether ^4×BGAG12,460:SNAP-mGluR2 would support patterned vision. The ability of treated and untreated rd1 mice to discriminate between two different line patterns in a learned negative association task was tested. The task is carried out in a 2-chamber arena, where the floor in each chamber is conductive and can apply an independent aversive mild foot shock. […] The mouse was trained for two days, during which a mild foot shock was given in one of the chambers. The line pattern associated with the foot shock was assigned randomly initially but then kept consistent for that animal throughout the 2 days of training. […] The chambers were cleaned thoroughly before and after each training or test session to remove olfactory clues. The room was kept dark to avoid room reference visual cues. And the aversive and non-aversive cues were switched between the end of the second day of training and the test day to avoid location bias.
To further assess the restored line pattern recognition, the lines were made thinner and the separation between the lines was reduced.
The kinetics of onset, decay and recovery of the restored light response are expected to affect the ability to recognize a visual pattern. […] Thus, the speed limit of ^4×BGAG12,460:SNAP-mGluR2 in RGCs is ≥8 cm/s, whereas that of medium wave cone opsin in RGCs is ≤4 cm/s.

Compound: Nc1nc(OCc2ccc(CNC(=O)CCCC(=O)N[C@H](CCC(=O)N[C@H](CCC(=O)NCCOCCOCCOCCOCCOCCOCCOCCOCCOCCOCCOCCOCCC(=O)NCCNc3ccc(/N=N/c4ccc(NC(=O)CCC[C@@H](C[C@H](N)C(=O)O)C(=O)O)cc4)cc3)C(=O)NCCOCCOCCOCCOCCOCCOCCOCCOCCOCCOCCOCCOCCC(=O)NCCNc3ccc(/N=N/c4ccc(NC(=O)CCC[C@@H](C[C@H](N)C(=O)O)C(=O)O)cc4)cc3)C(=O)N[C@H](CCC(=O)NCCOCCOCCOCCOCCOCCOCCOCCOCCOCCOCCOCCOCCC(=O)NCCNc3ccc(/N=N/c4ccc(NC(=O)CCC[C@@H](C[C@H](N)C(=O)O)C(=O)O)cc4)cc3)C(=O)NCCOCCOCCOCCOCCOCCOCCOCCOCCOCCOCCOCCOCCC(=O)NCCNc3ccc(/N=N/c4ccc(NC(=O)CCC[C@@H](C[C@H](N)C(=O)O)C(=O)O)cc4)cc3)cc2)c2nc[nH]c2n1 [^4×BGAG12,460]
- dark preference three weeks after injection ([1]; in PBS intravitreal): disappeared
- light aversion (time in dark versus illuminated chamber) ([1]; in PBS intravitreal, first week after injection, white screen 88 uW/cm^2): spent more time in the dark chamber than in the illuminated chamber
- light aversion at 0.2 μW/cm^2 ([1]; intensity-response relation): operating at chance
- light intensity giving maximal light-aversion behavior ([1]; intensity-response relation): 25 μW/cm^2
- week post-injection by which dark preference disappeared [2]: ≤ 3 week
- light aversion (time in dark chamber) ([2]; first week after injection): spent more time in the dark chamber
- speed limit of line pattern recognition in moving displays [3]: ≥ 8 cm/s
- line pattern recognition in moving displays (lines 1 or 6 cm apart) [3]: performed as well as wildtype animals when the line displays moved at either 4 or 8 cm/s
- line pattern recognition in moving displays (lines 1 or 6 cm apart) ([3]; listed as 4×BGAG): supports line pattern recognition as well as wildtype vision when visual displays move at 8 cm/s
- high-acuity line pattern recognition, 0.5 cm wide lines separated by 0.25 or 0.5 cm [3]: enabled the rd1 mice to perform the task and to do so as well as wildtype mice
- high-acuity line pattern recognition, 0.5 cm wide lines separated by 0.25 or 0.5 cm ([3]; listed as 4×BGAG): supports line pattern recognition approaching wild-type acuity limit
- line pattern recognition, parallel lines spaced 1 versus 6 cm ([3]; in PBS, trained and tested within a week after intravitreal injection): spent more time on the side of the non-aversive visual display
